The values that follow come from ChEMBL document CHEMBL1148002, “Synthesis and evaluation of 2'-substituted cyclobutyl nucleosides and nucleotides as potential anti-HIV agents” (Bioorg Med Chem Lett, 2007).

For orientation: pIC50 means −log10 of the IC50, conventionally taken in molar units.

Molecules are shown by their SMILES. pIC50: −log10 of the molar value.

Experiment [1] deals with Human immunodeficiency virus type 1 reverse transcriptase (Human immunodeficiency virus 1, UniProt Q72547, M184I). In words: Inhibition of HIV reverse transcriptase M184I mutant in cell free assay.
Experiment [2] is described as follows: Inhibition of recombinant wild type HIV reverse transcriptase. On the set-up: species or system Human immunodeficiency virus.
Experiment [3] can be described thus: Inhibition of wild type HIV reverse transcriptase in cell free assay. The following applies: Human immunodeficiency virus.
Experiment [4] can be described thus: Inhibition of HIV reverse transcriptase M184V mutant in cell free assay. The following applies: Human immunodeficiency virus.

On to `Nc1nc(=O)n([C@H]2C[C@@H](COP(=O)(O)OP(=O)(O)OP(=O)(O)O)C2)cc1F`, for which the results for the negative logarithm of the IC50 (pIC50) in experiment [1], in experiment [2] and in experiment [3] were 5.21, 5.33 and 5.16, respectively.
As to `Nc1ccn([C@@H]2CS[C@H](COP(=O)(O)OP(=O)(O)OP(=O)(O)O)O2)c(=O)n1` [LAMIVUDINE TRIPHOSPHATE], the pIC50 in experiment [1] was less than 5.00; in experiment [2], 5.52; in experiment [3] it was 5.19; in experiment [4], less than 5.00.
